Where two headings read alike, the source gives them in different places.
Assays:
water solubility = assay type: physicochemical; settings: particles having mean diameter D[4,3] higher than 85 μm
[1] = hygroscopicity / absorption of atmospheric humidity (water content by Karl-Fischer); assay type: physicochemical; settings: particles having mean diameter D[4,3] higher than 85 μm (150 μm vs known 50 μm sample, 25° C., 50% relative humidity, FIG. 2)
Procedure: The samples water content was determined by the known Karl—Fischer technique. “Approximatively” and “about” herein mean around ±10% of the indicated value.

[2] = cited from earlier work
[3] = cited from earlier work; remark: listed apart in the source
[4] = reported by EP 965 343; cited from earlier work
[5] = particles having diameter lower than or equal to 85 μm, aqueous solutions at physiological pH, EP 965 343; cited from earlier work

Compound	water solubility (water solubility)	resistance to absorption of atmospheric humidity ([1]; listed as Anhydrous ziprasidone hydrochloride)	resistance to absorption of atmospheric humidity ([1]; hydrochloride)	hygroscopicity ([2]; exposed to air, spontaneously converts to the hydrate form)	hygroscopicity ([2]; particles with diameter lower than or equal to 85 μm)	permeability through biological membranes [3]	water solubility [4]	amount of the compound that dissolves within 45 minutes [5]
Cl.O=C1Cc2cc(CCN3CCN(c4nsc5ccccc45)CC3)c(Cl)cc2N1 [anhydrous ziprasidone hydrochloride]	substantially unchanged	higher resistance to the absorption of atmospheric humidity	improved resistance to atmospheric humidity	highly hygroscopic	high hygroscopicity	–	–	–
Cl.O=C1Cc2cc(CCN3CCN(c4nsc5ccccc45)CC3)c(Cl)cc2N1 [ziprasidone hydrochloride, 5-(2-(4-(1,2-benzisothiazol-3-yl)-1-piperazinyl)-ethyl)-6-chloro-1,3-dihydro-2H-indol-2-one hydrochloride]	–	–	–	–	–	high permeability	sparingly water-soluble	at least 70%
